# Assays:
# [1] = Methylene blue staining of sebaceous glands in ex vivo tissue (topical application, frozen sections, light microscopy); type: in vitro ADME, human
# Method: (§1) Freshly excised human skin from a face-lift procedure was provided by a plastic surgeon. The skin originated from the periauricular area and the anterior hairline of a middle-aged fair-skinned person. The samples were stored at 4 ? C. overnight. On the day of experiment, the tissue was shaved with a razor and defatted by rubbing the surface with alcohol swabs for 1 minute. After cutting the skin in smaller pieces, the tissue was placed on saline-soaked gauzes. Methylene blue, a cationic hydrophilic dye was dissolved in distilled water, alcohol, and propylene glycol at a concentration of 5% and applied on the surface of the skin in a thick layer at 31 ? C. […] 5 mm-punch biopsies were performed and the samples were processed frozen sections.
# There was minimal non-specific staining of the interstitial dermis.
# as §1, with “5% and was mixed in a commercially available aqueous-based lotion (50 mL of dissolved dye in 500 mg of lotion) and applied on” for “5% and applied on”
# Methylene blue dye was also administered into the sebaceous glands via Retina Gel® (Ortho Pharmaceuticals) as the carrier vehicle. Typically, a sufficient amount of methylene blue (50 mL of dissolved dye in 500 mg of gel) was combined with hydroxypropyl cellulose, butylated hydroxytoluene and alcohol and applied to the epidermis.
# [2] = Localization of applied dyes in in-vitro human sebaceous skin samples by frozen sectioning and light microscopy; type: in vitro ADME
# From the text: Fresh, in-vitro human sebaceous skin samples were used. Dye solutions and particle suspensions were applied to the samples at different concentration and in various vehicles, followed by localization of the dye by frozen sectioning and light microscopy. […] Apparently, almost any dye or suspension can be delivered to the upper infundibulum by direct solvent flow into the pore. Optimization of the concentration and solvent for MB and ICG can be determined by one skilled in the art. […] Physical means of increasing dye uptake into the infundibulum, including ultrasonication with a tissue dismembranator at low intensity, and a simple pressure-applicator intended to open the surface pores while providing a pressure gradient in favor of dye uptake is possible.
compound,measurement,setting,value
CN(C)c1ccc2nc3ccc(=[N+](C)C)cc-3sc2c1 [Methylene blue],non-specific staining of the interstitial dermis (FIG. 9),[1],minimal
same,non-specific staining of the interstitial dermis (FIG. 10),[1],minimal
same,surface staining after removal of excess dye,"[1]; 5% dye solution mixed in aqueous-based lotion (50 mL of dissolved dye in 500 mg of lotion), 31 C, 1 hour",lightly stained epidermis with accentuation of the staining in the follicular pores
same,"staining in histologic sections (light microscopy, FIG. 10)","[1]; 5% dye solution mixed in aqueous-based lotion, 31 C, 1 hour, frozen sections",dense blue staining of the epidermis and of some sebaceous glands and entire hair follicles
same,"staining in histologic sections (light microscopy, FIG. 9)","[1]; 5% in distilled water, alcohol and propylene glycol, 31 C, 1 hour, 5 mm punch biopsies, frozen sections",dense blue staining of the epidermis and of some sebaceous glands and entire hair follicles
same,surface staining after removal of excess dye,"[1]; 5% in distilled water, alcohol and propylene glycol, thick layer at 31 C, 1 hour",lightly stained epidermis with accentuation of the staining in the follicular pores
same,penetration into the sebaceous glands (light microscopy),[1]; Retina Gel as carrier vehicle (50 mL of dissolved dye in 500 mg of gel),Penetration of the methylene blue dye into the sebaceous glands
same,increase of rate of uptake by iontophoresis,[2],at least one order of magnitude
same,entry of dye into the infundibulum,"[2]; fresh in-vitro human sebaceous skin, dye solutions at different concentrations and in various vehicles",rapidly enter the infundibulum
same,staining of the sebaceous glands,"[2]; fresh in-vitro human sebaceous skin, requiring several hours",deeply and selectively stain the sebaceous glands
